According to patent US20230303672A1, “METASTATIC CANCER TREATMENT OR PREVENTION” (OXFORD BROOKES UNIVERSITY, priority 2020, published 2023):

Columns and labels:
[1] = test system: MCF7 (metastatic) cells adhering to endothelial cells; assay: Endothelial static adhesion assay with or without antibodies and peptides; type: cell-based; details: peptide and corresponding peptide conjugate; compared to BT474 (non-metastatic) cells; 12 replicates; FIG. 15
Protocol: MCF7 and HUVEC cells were grown in 24 well cell culture plates to 70% confluency the cells were treated with Dharmafect™ transfection reagent and 5 uM of plectin siRNAs or scrambled negative control for 24 hrs. Some HUVEC and MCF7 cells were non-treated. HUVEC cells were activated by treating with 10 ug/ml TNFa in complete medium for 2 hrs at 37° C., 5% CO2. MCF7 breast cancer cells were grown in T75 flasks until 70% confluency and treated with 10 mg/ml HTPS in complete medium for 2 hrs at 37° C., 5% CO2. HTPS was removed and cells were washed with 10 ml of PBS 5 times until the wash ran clear. Cells were scraped and counted. 20,000 cells/ml was prepared. MCF7 cells were treated with either 500 ul of EVs isolated using the extraction method outlined above, or 500 ul of PBS for 10 mins at RT. EVs or PBS was removed and 1 ml of MCF7 cells were added to HUVEC cells and incubated at 37° C., 5% CO2 for 10 mins, before cells were removed and wells gently washed with warmed PBS to remove any unbound cells. Wells were then fixed with 4% PFA for 10 mins at RT. Fixative was removed and the wells washed 3 times with PBS and then coverslips were mounted using fluoromount. Total adhered cells per coverslip were counted.
This was as above but using 1/1000 of stock antibodies and peptides stated below.

[2] = test system: HPA-positive BC cells binding to endothelial cells; details: incubating cells with HPA or BSA-GalNAc; 'It has been shown'; cited from earlier work
[3] = test system: MCF7 breast cancer cell adhesion to endothelial cells (HUVEC); assay: Endothelial static adhesion assay with recombinant plectin; type: cell-based; details: MCF7 treated with 0.1 ug/ml recombinant plectin for 10 mins, compared to untreated, FIG. 6
Protocol: Coverslips with activated endothelial cells were prepared as above. MCF7 breast cancer cells were grown in T75 flasks until 70% confluency and treated with 10 mg/ml HTPS in complete medium for 2 hrs at 37° C., 5% CO2. HTPS was removed and cells were washed with 10 ml of PBS 5 times until the wash ran clear. Cells were scraped and counted. 20,000 cells/ml was prepared. MCF7 cells were treated with either 0.1 ug/ml recombinant plectin, (2b Scientific SKU RPC754Hu01 (residues Asp 175-Pro 400 (SEQ ID NO: 1) of human plectin Uniprot ID Q15149, corresponding to the actin-binding domain), in PBS or PBS for 10 mins at RT. Recombinant plectin or PBS were removed from cells and 20,000 cells/ml of MCF7 cells were added per well and incubated for 10 mins, cells were removed and wells gently washed with warmed PBS to remove any unbound cells. Wells were then fixed with 4% PFA for 10 mins at RT. Fixative was removed and the wells washed 3 times with PBS and then coverslips were mounted using fluoromount. Total adhered cells per coverslip were counted.
Sterilised 13 mm D glass coverslips were placed in wells of 24 well plate and 100,000 HUVEC cells were seeded. Cells were incubated at 37° C. with 5% CO2 atmosphere until cells became a monolayer. HUVEC cells were activated by treating with 10 ug/ml TNFa in complete medium for 2 hrs at 37° C., 5% CO2.

AVIYGGVQ [SEQ7]
MCF7 (metastatic) cells binding to endothelial cells (peptide) [1]: specifically reduces MCF7 (metastatic) cells binding to endothelial cells in a concentration dependant manner

BSA-GalNAc: GalNAc sugar conjugated to BSA
BC cell binding to endothelial cells [2]: inhibits cells binding

B1: recombinant plectin: 2b Scientific RPC754Hu01, residues Asp 175-Pro 400 (SEQ ID NO: 1) of human plectin, the actin-binding domain (protein, listed as Homo sapiens)
chain: DERDRVQKKTFTKWVNKHLIKAQRHISDLYEDLRDGHNLISLLEVLSGDSLPREKGRMRFHKLQNVQIALDYLRHRQVKLVNIRNDDIADGNPKLTLGLIWTIILHFQISDIQVSGQSEDMTAKEKLLLWSQRMVEGYQGLRCDNFTSSWRDGRLFNAIIHRHKPLLIDMNKVYRQTNLENLDQAFSVAERDLGVTRLLDPEDVDVPQPDEKSIITYVSSLYDAMP
Cell adhesion of MCF7 to endothelial cells [3]: significantly decreases | Cell adhesion of MCF7 to endothelial cells ([3]; listed as recombinant plectin fragment): significantly reduced
